This is an account of results in patent publication US20100261679A1 (priority 2007, published 2010).

For assay [1], the target named is T1, PDGFRb (Homo sapiens, UniProt P09619).
T1 construct: The kinase domain of PDGFRβ was assayed in 50 mM Hepes; purchased Invitrogen P3082
The assay can be described thus: Inhibition of PDGFRb kinase in an in vitro biochemical assay (alphascreen). Conditions: tested at about 1 μM; read-out: PDGFR % inhibition at 1 μM. Here is the method:
(§1) The IC50 values for the inhibition of RTKs were determined in the alphascreen format measuring the inhibition by compound of phosphate transfer to a substrate by the respective enzyme. Briefly, the respective RTK domain purchased as human recombinant protein (cKIT Upstate #14-559, PDGFRb Invitrogen #P3082) were incubated with serial dilutions of compound in the presence of substrate and ATP concentrations within 3 times the Km of the enzyme.
(§2) The kinase domain of cKIT was assayed in 50 mM Hepes, pH=7.5, 5 mM MgCl2, 10 mM MnCl2, 1 mM DTT, 0.1% BSA with 0.06 uM biotinylated peptide substrate (GGLFDDPSYVNVQNL-NH2) and 15 μM ATP (ATP KM apparent =15 μM). The kinase domain of PDGFRβ was assayed in 50 mM Hepes, pH=7.5, 20 mM MgCl2, 1 mM DTT, 0.1% BSA with 0.1 μM biotinylated peptide substrate (GGLFDDPSYVNVQNL-NH2) and 10 μM ATP (ATP KM apparent=25 μM). Reactions were incubated at room temperature for 3 to 4 hr and stopped with buffer (20 mM EDTA, 0.01% Tween-20 for both PDGFRβ and cKIT). Alphascreen PY20 beads were added to the stopped cKIT reactions and PY20 Ab/Protein A Alphascreen beads were added to the PDGFRβ stopped reactions. Both reactions were incubated overnight and read on the Alphascreen reader. The concentration of compound for 50% inhibition (IC50) was calculated employing non-linear regression using XL-Fit data analysis software. As a control compound, staurosporine is run in every assay and a Z′>0.5 is required to validate results.
In general terms: In Alpha technology, singlet oxygen from a donor bead excites a nearby acceptor bead.

Assay [2] addresses T2, cytoplasmic domain of the human CSF-1R (Homo sapiens, UniProt P07333).
T2 construct: Recombinant protein corresponding to the cytoplasmic domain of the human CSF-1R; purchased Invitrogen Corporation, Carlsbad, Calif; U.S.A. PV3249
T2 sequence (P07333 539-972 limits assumed): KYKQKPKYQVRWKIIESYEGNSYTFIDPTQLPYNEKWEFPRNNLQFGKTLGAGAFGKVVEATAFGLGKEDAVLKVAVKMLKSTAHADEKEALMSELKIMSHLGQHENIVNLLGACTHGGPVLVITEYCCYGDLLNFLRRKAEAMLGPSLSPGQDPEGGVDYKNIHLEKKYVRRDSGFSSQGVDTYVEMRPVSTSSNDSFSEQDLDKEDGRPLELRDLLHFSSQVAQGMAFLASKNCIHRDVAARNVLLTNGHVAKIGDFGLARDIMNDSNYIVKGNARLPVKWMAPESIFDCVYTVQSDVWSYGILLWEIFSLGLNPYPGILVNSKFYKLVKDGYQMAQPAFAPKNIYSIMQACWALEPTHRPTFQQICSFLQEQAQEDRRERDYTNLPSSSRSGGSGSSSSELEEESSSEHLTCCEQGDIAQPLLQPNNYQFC
The assay can be described thus: In vitro kinase assay for CSF-1R (AlphaScreen). The conditions noted are these: tested at about 1 μM. Type of assay: biochemical. The protocol:
The kinase activity of various protein tyrosine kinases can be measured by providing ATP and a suitable peptide or protein tyrosine-containing substrate, and assaying the transfer of phosphate moiety to the tyrosine residue. Recombinant protein corresponding to the cytoplasmic domain of the human CSF-1R was purchased from Invitrogen Corporation, Carlsbad, Calif. U.S.A. (#PV3249). For each assay, test compounds were serially diluted, starting at 25 μM with 3 fold dilutions, in DMSO in 384 well plates then mixed with an appropriate kinase reaction buffer consisting of 50 mM Hepes, 5 mM MgCl2, 10 mM MnCl2, 0.1% BSA, pH 7.5, 1.0 mM dithiothreitol, 0.01% Tween 80 plus […]. Kinase protein and an appropriate biotinylated peptide substrate at 50 nM were added to give a final volume of 20 μL, reactions were incubated for 2 hours at room temperature and stopped by the addition of 10 μL of 45 mM EDTA, 50 mM Hepes pH 7.5. Added to the stopped reaction mix was 30 μL of PT66 Alphascreen beads (Perkin Elmer, Boston, Mass., U.S.A.). The reaction was incubated overnight and read on the Envision (Perkin Elmer). Phosphorylated peptide product was measured with the AlphaScreen system (Perkin Elmer) using acceptor beads coated with anti-phosphotyrosine antibody PT66 and donor beads coated with streptavidin that emit a fluorescent signal at the 520-620 nm emission wave length if in close proximity. The concentration of each compound for 50% inhibition (IC50) was calculated by non-linear regression using XL Fit data analysis software.
CSF-1R kinase was assayed in 50 mM Hepes pH 7.0, 5 mM MgCl2, 10 mM MnCl2, 1 mM DTT, 1 mg/mL BSA, 1.0 μM ATP, and 0.05 μM biotin-GGGGRPRAATF-NH2 (SEQ ID NO:2) peptide substrate. CSF-1R kinase was added at final concentration of 4 nM.

For assay [3], the target named is T3, cKIT (Homo sapiens, UniProt P10721).
T3 construct: The kinase domain of cKIT was assayed in 50 mM Hepes; purchased Upstate 14-559
Kind of assay: Inhibition of cKIT kinase in an in vitro biochemical assay (alphascreen). The conditions noted are these: tested at about 1 μM. Here is the method:
as §1, §2

T1 sequence (P09619 600-962 limits assumed): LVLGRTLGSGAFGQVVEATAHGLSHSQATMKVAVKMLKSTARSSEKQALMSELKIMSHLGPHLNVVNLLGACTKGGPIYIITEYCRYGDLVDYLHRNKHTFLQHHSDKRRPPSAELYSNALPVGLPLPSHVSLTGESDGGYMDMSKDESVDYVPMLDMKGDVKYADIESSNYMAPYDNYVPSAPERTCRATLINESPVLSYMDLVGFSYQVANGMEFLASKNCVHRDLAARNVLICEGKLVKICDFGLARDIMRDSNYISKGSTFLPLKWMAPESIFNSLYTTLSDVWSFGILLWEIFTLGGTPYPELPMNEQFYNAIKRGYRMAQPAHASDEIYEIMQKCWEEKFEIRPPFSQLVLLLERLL
T3 sequence (P10721 589-937 limits assumed): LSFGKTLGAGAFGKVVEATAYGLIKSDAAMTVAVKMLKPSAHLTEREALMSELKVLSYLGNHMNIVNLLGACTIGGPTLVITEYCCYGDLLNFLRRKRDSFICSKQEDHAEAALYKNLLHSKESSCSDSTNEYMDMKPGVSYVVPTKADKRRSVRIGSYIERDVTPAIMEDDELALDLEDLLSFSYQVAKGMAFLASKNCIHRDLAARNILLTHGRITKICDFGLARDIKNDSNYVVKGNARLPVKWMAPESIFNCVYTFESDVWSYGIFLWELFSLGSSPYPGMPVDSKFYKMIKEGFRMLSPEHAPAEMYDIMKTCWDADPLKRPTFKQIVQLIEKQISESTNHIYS

In the case of `CNC(=O)c1cc(Oc2ccc3nc(NC(=O)C4CCCCC4)ncc3c2)ccn1` [Example 59, 4-(2-(cyclohexanecarboxamido)quinazolin-6-yloxy)-N-methylpicolinamide], the inhibition (as a rule, the share of the control response that was lost under treatment) at 1 µM in assay [1] came out at 13%; in assay [2] it was 99%; in assay [3], 13%.
Turning to `CNC(=O)c1cc(Oc2ccc3nc(N[C@@H](C)C4CCCCC4)ncc3c2)ccn1` [Cmpd 16, (S)-4-(2-(1-cyclohexylethylamino)quinazolin-6-yloxy)-N-methylpicolinamide], the inhibition at 1 µM in assay [1] turned out to be 26%; in assay [2], 100%; in assay [3] it was 58%.
The matching figures for `CNC(=O)c1cc(Oc2ccc3nc(Nc4cccc5c4OCCO5)ncc3c2)ccn1` [Example 40, 4-(2-(2,3-dihydrobenzo[b][1,4]dioxin-5-ylamino)quinazolin-6-yloxy)-N-methylpicolinamide]: below 1%, 100% and 13%.
On to `CNC(=O)c1cc(Oc2ccc3nc(OCC4CCCCC4)ncc3c2)ccn1` [Example 55, 4-(2-(cyclohexylmethoxy)quinazolin-6-yloxy)-N-methylpicolinamide], for which the inhibition at 1 µM in assay [1] came out at 6%; in assay [2] it was 99%; in assay [3], 42%.
In the case of `CNC(=O)c1cc(Oc2ccc3nc(N[C@H]4CCCC[C@@H]4O)ccc3c2)ccn1` [Example 2], the inhibition at 1 µM amounted to 32% in assay [1], 100% in assay [2] and 21% in assay [3].
In the case of `CCNC(=O)c1cc(Oc2ccc3nc(Nc4ccccc4N4CCOCC4)ncc3c2)ccn1` [Example 34, N-ethyl-4-(2-(2-morpholinophenylamino)quinazolin-6-yloxy)picolinamide], the figures for the inhibition at 1 µM in assay [1], in assay [2] and in assay [3] were 2%, 80% and 14%, respectively.
In the case of `CNC(=O)c1cc(Oc2ccc3nc(Nc4ccccc4OCCCO)ncc3c2)ccn1` [Example 71, 4-(2-(2-(3-hydroxypropoxy)phenylamino)quinazolin-6-yloxy)-N-methylpicolinamide], the inhibition at 1 µM in assay [1] is 11%; in assay [2] it was 90%; in assay [3], below 1%.
Turning to `CNC(=O)c1cc(Oc2ccc3nc(NCC(C)(C)N4CCOCC4)ncc3c2)ccn1` [Example 61, N-methyl-4-(2-(2-methyl-2-morpholinopropylamino)quinazolin-6-yloxy)picolinamide], the inhibition at 1 µM in assay [1] is below 1%; in assay [2], 93%; in assay [3], 12%.
On to `CNC(=O)c1cc(Oc2ccc3nc(NC(=O)c4ccccc4)ncc3c2)ccn1` [Example 72, 4-(2-benzamidoquinazolin-6-yloxy)-N-methylpicolinamide], for which the results for the inhibition at 1 µM in assay [1], in assay [2] and in assay [3] were 43%, 98% and 13%, respectively.
`CCCNc1ncc2cc(Oc3ccnc(C(=O)NC)c3)ccc2n1` [Example 52, N-methyl-4-(2-(propylamino)quinazolin-6-yloxy)picolinamide]: the inhibition at 1 µM was 9% in assay [1], 52% in assay [2] and 7% in assay [3].
Take `CNC(=O)c1cc(Oc2ccc3nc(NC(C)c4nccs4)ncc3c2)ccn1` (stereo not drawn) [Example 48, N-methyl-4-(2-(1-(thiazol-2-yl)ethylamino)quinazolin-6-yloxy)picolinamide]: the inhibition at 1 µM in assay [1] was 15%; in assay [2], 98%; in assay [3], 18%.
For `CNC(=O)c1cc(Oc2ccc3nc(N[C@H]4CCCC[C@@H]4O)ncc3c2)ccn1` [Example 12], the inhibition at 1 µM in assay [1] came to 39%; in assay [2] it was 100%; in assay [3], 39%.
Turning to `CNC(=O)c1cc(Oc2ccc3nc(N[C@@H]4CCCC[C@H]4O)[nH]c3c2)ccn1` [Example 82, 4-(2-((1R,2R)-2-hydroxycyclohexylamino)-1H-benzo[d]imidazol-6-yloxy)-N-methylpicolinamide], the results for the inhibition at 1 µM in assay [1], in assay [2] and in assay [3] were 30%, 99% and 30%, respectively.
`CNC(=O)c1cc(Sc2ccc3nc(NCC4CCCCC4)sc3c2)ccn1` [Example 78, 4-(2-(cyclohexylmethylamino)benzo [d]thiazol-6-ylthio)-N-methylpicolinamide]: the values for the inhibition at 1 µM in assay [1], in assay [2] and in assay [3] were 34%, 100% and 13%, respectively.
Consider `CNC(=O)c1cc(Oc2ccc3nc(NCC4CC4)ncc3c2)ccn1` [Example 53, 4-(2-(cyclopropylmethylamino)quinazolin-6-yloxy)-N-methylpicolinamide], for which the inhibition at 1 µM in assay [1] is 9%; in assay [2] it was 83%; in assay [3], below 1%.
Turning to `CNC(=O)c1cc(Oc2ccc3nc(N[C@@H](CO)C4CCCCC4)ncc3c2)ccn1` [Cmpd 17, (R)-4-(2-(1-cyclohexyl-2-hydroxyethylamino)quinazolin-6-yloxy)-N-methylpicolinamide], the inhibition at 1 µM in assay [1] amounted to 38%; in assay [2] it was 100%; in assay [3] it was 61%.
Regarding `CNC(=O)c1cc(Oc2ccc3nc(NC4CCCCC4)ncc3c2)ccn1` [Example 74, 4-(2-(cyclohexylamino)quinazolin-6-yloxy)-N-methylpicolinamide], the values for the inhibition at 1 µM in assay [1], in assay [2] and in assay [3] were below 1%, 100% and 18%, respectively.
For the compound `CNC(=O)c1cc(Oc2ccc3nc(N[C@H](C)c4ccccc4)ncc3c2)ccn1` [Example 38, (R)-N-methyl-4-(2-(1-phenylethylamino)quinazolin-6-yloxy)picolinamide], the inhibition at 1 µM turned out to be 46% in assay [1], 99% in assay [2] and 92% in assay [3].
Taken in the same sequence, the figures for `c1ccc(N2CCOCC2)c(Nc2ncc3cc(Oc4ccncc4)ccc3n2)c1` [Cmpd 28, N-(2-morpholinophenyl)-6-(pyridin-4-yloxy)quinazolin-2-amine] were below 1%, 52% and 8%.
Regarding `CC(=O)Nc1cc(Oc2ccc3nc(Nc4ccccc4N4CCOCC4)ncc3c2)ccn1` [Example 32, N-(4-(2-(2-morpholinophenylamino)quinazolin-6-yloxy)pyridin-2-yl)acetamide], the inhibition at 1 µM in assay [1] is below 1%; in assay [2] it was 99%; in assay [3], 7%.
Taken in the same sequence, the figures for `CNC(=O)c1cc(Oc2ccc3nc(N[C@H](C)C4CCCCC4)ncc3c2)ccn1` [Example 15, (R)-4-(2-(1-cyclohexylethylamino)quinazolin-6-yloxy)-N-methylpicolinamide] were 26%, 100% and 50%.
